Experimental data: patent US10940218B2, “Treatment of meningiomas using phenylbenzothiazole, stilbene, biphenylalkyne, or pyridine derivatives” (MAYO FOUNDATION FOR MEDICAL EDUCATION AND RESEARCH, priority 2012, dated 2021)
“Also recorded” adds a separate entry of the source.

How the values were obtained:
[1] = tested on: other intracranial tumors and brain tissue sections; assay: Fluorescent tissue staining of other tumors and brain tissue; type: binding, human
From the text: (§1) The Department of Pathology, Mayo Clinic Rochester Tumor Tissue Registry, contains tumor samples procured by autopsy and surgery. Meningiomas, brain metastases and other tumors were identified by searching CoPath, a Mayo Clinic electronic pathology database of tumors collected since 1982. Tumor type was confirmed by viewing H&E stained slides under a light microscope.
(§2) Fresh cut 5 μm thick sections were used. Each staining run included normal brain and Alzheimer diseased brain as controls. Fluorescent tissue staining and microscopy was performed similar to methods previously described at Ikonomovic M D, Klunk W E, Abrahamson E E, et al., “Post-mortem correlates of in vivo PiB-PET amyloid imaging in a typical case of Alzheimer's disease”, Brain: A Journal Of Neurology 2008; 131:1630-45. Meningioma and other brain tumor sections were stained with 100 nM CN-PiB, 100 nM of unlabeled PiB or with saline alone as a negative control. The staining protocol was as follows: deparaffinization and rehydration, 0.25% KMnO4 incubation, water wash, 1% K2S2O5/1% Oxalic Acid incubation, water wash, PBS wash, 6-CN-PiB/PiB/saline incubation, PBS wash, NaCl, K2HPO4, and KH2PO4 incubation, water wash, mount coverslip, and storage at 4° C. in the dark until imaged. Slides were imaged within five days of staining. Immunohistochemical staining of meningiomas for beta amyloid protein was performed using NCL-B-Amyloid mouse anti-human antibody per standard clinical protocol.
(§3) Tissue stain images were obtained on a Zeiss 510 confocal microscope with excitation at 405 nm, a 420-480 bandpass filter, and the laser set at 15% power.
(§4) Images were obtained with a C-Apochromat 40×/1.2 W lens.

[2] = tested on: meningioma tissue sections; assay: Fluorescent tissue staining of meningioma sections; type: binding, human; settings: for location of staining within meningioma cells: tissue sections
From the text: as §1, §2, §3, §4

non-meningioma tumors [3] = assay: PiB PET/CT imaging of non-meningioma tumors and lesions in patients; type: in vivo, human
From the text: (§5) An Alzheimer's imaging database of two hundred forty-one patients was reviewed. […] All patients had been imaged by at least one MRI, as well as by FDG-PET/CT and PET/CT using the compound of formula (V). MRI reports of all patients were reviewed for possible meningiomas and other tumors. […] The diagnostic confidence of the radiologists interpreting the studies varied slightly, depending on factors such as tumor location and previous imaging. […] Tumors smaller than 7 millimeters are generally considered too small to be evaluated by PET or PET/CT. This is an excepted limitation of PET or PET/CT as a modality. […] None of the meningiomas in the series would be classified as atypical or aggressive based on MRI or CT imaging. One presumed extracranial schwannoma was seen, showing mild uptake on FDG-PET/CT, but no uptake on PET/CT using the compound of formula (V).
(§6) The radiologic interpretations of MRI, CT and FDG PET/CT scans from a population of 834 people who participated in the population-based Mayo Clinic Study of Aging (MCSA) from March 2006 through September 2011 were reviewed for the presence of tumors or other brain lesions. (See, Kantarci K, Lowe V, Przybelski S A, et al., “Magnetic resonance spectroscopy, {beta}-amyloid load, and cognition in a population-based sample of cognitively normal older adults”, Neurology 2011; 77:951-8; and Roberts R O, Geda Y E, Knopman D S, et al., “The Mayo Clinic Study of Aging: design and sampling, participation, baseline measures and sample characteristics”, Neuroepidemiology 2008; 30:58-69.) Participants were randomly selected for recruitment in the MCSA from a population of older adult residents of Olmsted County, Minn., USA. Those with neurological, psychological or systemic illnesses were not excluded. Individuals with dementia, or those unable to be imaged for medical reasons were excluded. All patients were imaged with C11-PiB PET/CT, F18-FDG PET/CT and non-contrast MRI at least once as part of the study. Any additional patient imaging and clinical history was then reviewed.
(§7) Tumors found in any of the subjects were then categorized as possible meningiomas or non-meningiomas based on the reading of the reporting neuroradiologist. Possible meningiomas were further reviewed as a group. A more strict set of criteria were applied to select a subset of the possible meningiomas that were designated “high-likelihood meningiomas” for further analysis and were defined by (1) tumors that were confirmed to be enhancing on diagnostic MRI (obtained separately for clinical purposes) and (2) tumors that had greater than two years of follow-up imaging confirming no growth or slow growth (1-2 mm per year). When the lead diagnosis of the identified tumor was metastasis, the diagnosis was confirmed by biopsy or autopsy. All tumors smaller than 5 mm thick were excluded, given they fall below the generally accepted lower limits of PET/CT resolution.
(§8) PET imaging was performed as part of the Mayo Clinic Study of Aging as previously described. (See Kantarci K, Lowe V, Przybelski S A, et al., “Magnetic resonance spectroscopy, {beta}-amyloid load, and cognition in a population-based sample of cognitively normal older adults”, Neurology 2011; 77:951-8.) PiB PET/CT, then FDG PET/CT were performed on the same day. PET/CT imaging was performed on a 690XT or DRX PET/CT tomograph (GE Healthcare). The PET sinograms were reconstructed using a fully-3D OSEM algorithm into a 30 cm field of view; the pixel size was 1.2 mm and the slice thickness was 3.27 mm (DRX) or 1.96 mm (690XT). CT imaging was obtained immediately prior to PET acquisition and used for attenuation correction. Cerebral PiB retention, a marker of amyloid deposition, was measured as previously described. (See Kantarci K, Lowe V, Przybelski S A, et al. “Magnetic resonance spectroscopy, {beta}-amyloid load, and cognition in a population-based sample of cognitively normal older adults”, Neurology 2011; 77:951-8.) […]

normal adjacent tissues = assay: PiB PET/CT activity of normal adjacent tissues; type: in vivo, human
From the text: as §6
(§9) PET imaging was performed as part of the Mayo Clinic Study of Aging as previously described. (See Kantarci K, Lowe V, Przybelski S A, et al., “Magnetic resonance spectroscopy, {beta}-amyloid load, and cognition in a population-based sample of cognitively normal older adults”, Neurology 2011; 77:951-8.) PiB PET/CT, then FDG PET/CT were performed on the same day. PET/CT imaging was performed on a 690XT or DRX PET/CT tomograph (GE Healthcare). The PET sinograms were reconstructed using a fully-3D OSEM algorithm into a 30 cm field of view; the pixel size was 1.2 mm and the slice thickness was 3.27 mm (DRX) or 1.96 mm (690XT). CT imaging was obtained immediately prior to PET acquisition and used for attenuation correction. Cerebral PiB retention, a marker of amyloid deposition, was measured as previously described. (See Kantarci K, Lowe V, Przybelski S A, et al. “Magnetic resonance spectroscopy, {beta}-amyloid load, and cognition in a population-based sample of cognitively normal older adults”, Neurology 2011; 77:951-8.)

meningiomas [4] = assay: PiB PET/CT imaging of meningiomas in patients; type: in vivo, human
From the text: as §5, §6, §7, §8

meningiomas [5] = assay: FDG PET/CT imaging of meningiomas; type: in vivo, human
From the text: (§10) An Alzheimer's imaging database of two hundred forty-one patients was reviewed. […] MRI reports of all patients were reviewed for possible meningiomas and other tumors. […] Tumors smaller than 7 millimeters are generally considered too small to be evaluated by PET or PET/CT.
as §6, §9

non-meningioma tumors [6] = assay: FDG PET/CT imaging of non-meningioma tumors; type: in vivo, human
From the text: as §10, §6
PET imaging was performed as part of the Mayo Clinic Study of Aging as previously described. (See Kantarci K, Lowe V, Przybelski S A, et al., “Magnetic resonance spectroscopy, {beta}-amyloid load, and cognition in a population-based sample of cognitively normal older adults”, Neurology 2011; 77:951-8.) PiB PET/CT, then FDG PET/CT were performed on the same day. PET/CT imaging was performed on a 690XT or DRX PET/CT tomograph (GE Healthcare). […] Cerebral PiB retention, a marker of amyloid deposition, was measured as previously described. […]

[7] = 100 nM stain, 5 μm sections, fluorescent microscopy
[8] = Example 1, presumed extracranial schwannoma
[9] = 16 high-likelihood meningiomas in 15 patients, C11-PiB PET/CT

Compound: CNc1ccc(-c2nc3ccc(C#N)cc3s2)cc1 [Formula 6-CN-PiB]
- fluorescent staining ([1]; amyloid laden cerebral cortex, Alzheimer's disease, beta-amyloid plaques (positive control)): very intense fluorescence
- fluorescent staining ([1]; lung cancer brain metastasis): scattered fluorescence; also recorded: staining in the nuclei of the cells
- fluorescent staining ([1]; normal brain gray matter): almost no fluorescence
- fluorescent staining ([1]; schwannoma, FIG. 6 Panel E): only trace fluorescence
- fluorescent staining ([1]; some other tumors): Moderate 6-CN-PiB binding
- fluorescent staining of meningioma tissue [2, 7]: stained positively; also recorded: intense fluorescence
- fluorescent staining of meningioma tissue ([2]; 100 nM stain, 5 μm sections, fluorescent microscopy, listed as highly-fluorescent version of the compound of Formula (V)): accumulate
- staining brightness versus other intracranial tumors ([2]; all meningiomas (n=7) vs other intracranial tumors (n=6)): qualitatively brighter
- fluorescent staining of meningioma tissue ([2]; multiple WHO grade I transitional type meningiomas): stained positive
- location of staining within meningioma cells [2]: outside the nuclei, within the cytoplasm and/or cell membrane
- location of staining within meningioma cells ([2]; listed as highly-fluorescent version of the compound of Formula (V)): within the nucleus of the cells of the meningiomas

Compound: [11CH3]Nc1ccc(-c2nc3ccc(O)cc3s2)cc1 [PiB, [N-Methyl-^11C]2-(4′-methylaminophenyl)-6-hydroxybenzothiazole]
- uptake on PET/CT (non-meningioma tumors [3]; Example 1, other tumors): little to no uptake
- uptake on PET/CT (non-meningioma tumors [3]; [8]): no uptake
- uptake on PET/CT (non-meningioma tumors [3]; Example 3, 25 types of tumors and non-neoplastic lesions incl. schwannoma, hamartoma, ependymoma, pituitary adenoma): only background uptake or no uptake
- SUVmax (non-meningioma tumors [3]; FIG. 4 melanoma metastasis): 0.9
- SUVmax (non-meningioma tumors [3]; FIG. 4 small cell lung cancer metastasis): 1.1
- SUVmax (non-meningioma tumors [3]; FIG. 5 Panel B, pituitary macroadenoma): 0.9
- SUVmax (non-meningioma tumors [3]; FIG. 5 Panel D, schwannoma): 0.8
- SUVmax (non-meningioma tumors [3]; FIG. 5 Panel F, ependymoma): 0.4
- SUVmax (non-meningioma tumors [3]; FIG. 5 Panel H, postoperative changes/scarring): 0.6
- PiB PET/CT result (non-meningioma tumors [3]; all non-meningioma intracranial tumors (metastases, pituitary macroadenomas, schwannomas, ependymoma)): PiB activity equal or less than normal adjacent tissue; also recorded: negative
- SUVmax (non-meningioma tumors [3]; all non-meningioma intracranial tumors identified): ≤ 1.1
- SUVmax (non-meningioma tumors [3]; bony lesions (hemangiomas, fibrous dysplasia, hyperostosis frontalis, osteoma)): < 1.0
- SUVmax (non-meningioma tumors [3]; extra-cranial tumors (sinus polyps, mucus retention cysts, mucocele, Warthin's tumors, inverted papilloma)): < 1.2
- PiB PET/CT result (non-meningioma tumors [3]; intracranial metastases (melanoma, small cell lung cancer)): negative with low activity
- PiB activity (non-meningioma tumors [3]; non-tumorous lesions (strokes, arachnoid cysts, multiple sclerosis lesions)): only trace PiB activity
- SUVmax (non-meningioma tumors [3]; vascular lesions (aneurysms, telangiectasias, cavernomas, venous angiomas)): ≤ 1.2
- average SUVmax (normal adjacent tissues; nearby normal bone): 0.6
- average SUVmax (normal adjacent tissues; nearby normal grey matter): 1.1
- PiB activity (normal adjacent tissues; nearby normal white matter, FIG. 5): high level of nonspecific PiB activity
- average background SUVmax (normal adjacent tissues; surrounding cerebrospinal fluid): 0.2
- SUVmax (meningiomas [4]; 2.0 cm thick meningioma, focused irradiation 1 month prior to PiB PET/CT): 3.6
- SUVmax range (meningiomas [4]; [9]): 1.4-3.6
- average SUVmax (by body weight) (meningiomas [4]; [9]): 2.2
- uptake on PET/CT (meningiomas [4]; Example 1, one of seven presumed meningiomas, small size (~4 mm thick)): some uptake
- uptake on PET/CT (meningiomas [4]; Example 1, six of seven presumed meningiomas, 241 patient database): intense uptake
- uptake on PET/CT (meningiomas [4]; Example 2, recurrent orbital meningioma and falx meningioma in one patient): avid uptake
- uptake on PET/CT (meningiomas [4]; Example 2, total of ten presumed meningiomas): show uptake
- repeat imaging result (meningiomas [4]; Example 3, one patient imaged two times, many months in between): the same positive results
- uptake on PET/CT (meningiomas [4]; Example 3, thirteen out of thirteen presumed meningiomas >5 mm within field of view): positive uptake
- uptake on PET/CT (meningiomas [4]; Example 3, three non-diagnostic presumed meningiomas): some positive uptake
- repeat imaging SUVmax of meningioma (meningiomas [4]; Example 4, two patients imaged with PiB PET/CT more than once): stable or increasing SUVmax
- activity at the meningioma on PET/CT (meningiomas [4]; FIG. 1, Patient #1, right tentorium cerebelli mass): intense activity
- activity at the meningioma on PET/CT (meningiomas [4]; FIG. 2, Patient #4, tuberculum sellae and planum sphenoidale mass): intense activity
- SUVmax (meningiomas [4]; FIG. 3, 2.6 cm thick meningioma of the right tentorium): 2.8
- SUVmax (meningiomas [4]; FIG. 4 meningioma, Panels A-C): 2.8
- SUVmax (meningiomas [4]; FIG. 4 meningioma, panels G-I): 3.6
- SUVmax (meningiomas [4]; FIG. 5 Panel A, sella/supracellar region meningioma): 1.7
- SUVmax (meningiomas [4]; FIG. 5 Panel C, internal auditory canal meningioma): 1.9
- SUVmax (meningiomas [4]; FIG. 5 Panel E, lateral ventricle meningioma): 2.1
- SUVmax (meningiomas [4]; FIG. 5 Panel G, post-surgical meningioma recurrence): 1.5
- PiB PET/CT result (meningiomas [4]; all 16 meningiomas identified by strict imaging criteria): PiB activity greater than normal adjacent tissues; also recorded: clearly diagnostically positive
- amount of harmful radiation to the patient (meningiomas [4]; injection and PET/CT imaging): within acceptable limits for diagnostic purposes
- fluorescent staining of meningioma tissue [2, 7]: stained brightly positive; also recorded: unique staining pattern
- fluorescent staining of meningioma tissue ([2]; 100 nM stain, 5 μm sections, fluorescent microscopy, listed as Formula (V)): accumulate
- location of staining within meningioma cells [2]: within the nucleus of the cells of the meningiomas

Compound: Fluorodeoxyglucose [FDG]
- uptake on FDG-PET/CT (meningiomas [5]; Example 1, four meningiomas): no uptake
- uptake on FDG-PET/CT (meningiomas [5]; Example 1, two meningiomas): mild uptake
- FDG activity (meningiomas [5]; FIG. 3 meningioma): only trace FDG activity
- FDG PET activity (meningiomas [5]; FIG. 4 meningioma, panels G-I): increased FDG PET activity
- FDG activity (meningiomas [5]; seven of the 16 meningiomas): moderate to high FDG activity
- uptake on FDG-PET/CT (non-meningioma tumors [6]; [8]): mild uptake
- FDG PET/CT result (non-meningioma tumors [6]; FIG. 5 pituitary macroadenoma): positive
- FDG PET activity (non-meningioma tumors [6]; melanoma and small cell lung cancer metastases): increased FDG PET activity; also recorded: positive
